Results on 24 compounds are retold here after PubChem BioAssay (NCI).

Test systems include SK-OV-3 ovarian; HCC-2998 colon; LOX IMVI melanoma; HCT-116 colon; CCRF-CEM leukemia; MDA-MB-435; RXF 393 renal; COLO 205 colon.
Common to all, as to test: NCI anticancer screen, dose series, 48 h

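Dose response: 5 concentrations. Exposure: 48 h. Format: 96-well plates. Endpoint: linear interpolation; highest concentration if not reached. At the GI50, growth is halved. TGI denotes the concentration required for complete inhibition of growth.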

As for `CC1(C)CN=CC(C)(OCc2ccccc2)C(=O)NC(C)(C)CN=CC(C)(OCc2ccccc2)C(=O)N1` (stereo not given), the TGI with SK-OV-3 ovarian, in the assay on HCC-2998 colon, in the assay with LOX IMVI melanoma, in the assay on HCT-116 colon, in the assay with CCRF-CEM leukemia and in the assay on MDA-MB-435 was over 10 µM throughout. In addition, in the assay on RXF 393 renal, the TGI is over 10 µM.
Consider `O=c1c2cc(I)ccc2nc(SCc2nnco2)n1Cc1ccccc1`, for which the TGI was over 100 µM in the assay with SK-OV-3 ovarian; over 100 µM in the assay on HCC-2998 colon; over 100 µM in the assay on LOX IMVI melanoma; over 100 µM with HCT-116 colon; over 100 µM with COLO 205 colon; 62.9 µM in the assay with CCRF-CEM leukemia. For the same compound, the TGI in the assay with MDA-MB-435 and in the assay with RXF 393 renal was over 100 µM throughout.
With `CC1=CC(=O)/C(=C/n2c(=S)[nH]c3cc(C)ccc32)C(=O)O1`, the TGI in the assay on SK-OV-3 ovarian, in the assay with HCC-2998 colon, in the assay with LOX IMVI melanoma, in the assay on HCT-116 colon, with COLO 205 colon and in the assay with CCRF-CEM leukemia was over 100 µM throughout. The TGI with MDA-MB-435 and with RXF 393 renal was over 100 µM in each case.
For the compound `C[C@]12CC[C@H](O)CC1=CC[C@@H]1[C@@H]2CC[C@]2(C)C(=O)/C(=C/c3ccc([N+](=O)[O-])cc3)C[C@@H]12`, the TGI in the assay on SK-OV-3 ovarian was 22.6 µM; with HCC-2998 colon it was over 100 µM; in the assay on LOX IMVI melanoma, 22.5 µM; in the assay with HCT-116 colon it was 62.3 µM; in the assay with CCRF-CEM leukemia, over 100 µM; with MDA-MB-435, over 100 µM. The TGI in the assay with RXF 393 renal was determined as 25 µM.
Consider `CCOC(=O)C(NC(=O)CC)(Nc1ccc(S(=O)(=O)Nc2ccc(OC)nn2)cc1)C(F)(F)F` (stereo not given), for which the TGI with SK-OV-3 ovarian, with HCC-2998 colon, in the assay on LOX IMVI melanoma, in the assay with HCT-116 colon, in the assay with COLO 205 colon and in the assay with CCRF-CEM leukemia was over 100 µM throughout. Further, the TGI in the assay with MDA-MB-435 and in the assay on RXF 393 renal was over 100 µM in each case.
As for `CCC(=O)N1C(=O)C(CC)(CC)C(=O)N1C(=O)CC`, the TGI in the assay on SK-OV-3 ovarian, in the assay with HCC-2998 colon, in the assay on HCT-116 colon, with COLO 205 colon, in the assay on CCRF-CEM leukemia and in the assay on MDA-MB-435 was over 100 µM throughout. In the assay on RXF 393 renal, the TGI is over 100 µM.
For the compound `CCN(CC)C1Oc2cc3c(cc2C(c2cccc(OC)c2O)C1C)OCO3` (stereo not given), the TGI with SK-OV-3 ovarian is over 61.3 µM; with HCC-2998 colon, over 46.7 µM; in the assay with LOX IMVI melanoma, 22.2 µM; in the assay with HCT-116 colon it was 21.1 µM; in the assay with COLO 205 colon, 13.6 µM; in the assay with CCRF-CEM leukemia it was 16.3 µM. For the same compound, the values for the TGI in the assay on MDA-MB-435 and in the assay on RXF 393 renal were 4.96 µM and 21.2 µM, respectively.
Regarding `OC1(c2ccc(Cl)cc2)c2c(c3ccccc3c3ccccc23)C2=NCCN21` (stereo not given), the TGI in the assay on SK-OV-3 ovarian was 31.3 µM; in the assay with HCC-2998 colon, 6.85 µM; in the assay on LOX IMVI melanoma it was 73.8 µM; with HCT-116 colon, 25.7 µM; in the assay on COLO 205 colon it was over 100 µM; with CCRF-CEM leukemia, over 100 µM. For the same compound, the TGI was over 100 µM in the assay with MDA-MB-435 and 24.7 µM with RXF 393 renal.
In the case of `COc1cc2[nH]c(=O)c3cc(C)cc4c(Cl)nc(c1OC)c2c43`, the TGI in the assay with SK-OV-3 ovarian, in the assay with HCC-2998 colon, with LOX IMVI melanoma, in the assay with HCT-116 colon, in the assay with COLO 205 colon and with CCRF-CEM leukemia was over 100 µM throughout. The TGI in the assay with MDA-MB-435 is over 100 µM; with RXF 393 renal, 58.1 µM.
Take `Cn1c(COC(=O)NC2CCCCC2)c(COC(=O)NC2CCCCC2)c2ccc3cc(C=O)ccc3c21`: the TGI in the assay on SK-OV-3 ovarian, in the assay with HCC-2998 colon, in the assay on LOX IMVI melanoma, in the assay on HCT-116 colon, in the assay on COLO 205 colon and in the assay on CCRF-CEM leukemia was over 100 µM each time. The TGI in the assay on MDA-MB-435 and in the assay with RXF 393 renal was over 100 µM in each case.
Consider `O=C(N[C@H]1CCC[C@H]1C(=O)Nc1ccc(C(F)(F)F)cc1)OCc1ccccc1`, for which the TGI with SK-OV-3 ovarian, in the assay with HCC-2998 colon, in the assay with LOX IMVI melanoma, in the assay with HCT-116 colon, in the assay on COLO 205 colon and with CCRF-CEM leukemia was over 100 µM each time. In addition, the TGI in the assay on MDA-MB-435 and in the assay with RXF 393 renal was over 100 µM each time.
Consider `COc1ccc(N2N=NN(C(C)C)/C2=C(/Cl)c2nnnn2-c2ccc(OC)cc2)cc1`, for which the TGI came out at 32.8 µM in the assay with SK-OV-3 ovarian; 34.4 µM in the assay on HCC-2998 colon; 6.82 µM in the assay on LOX IMVI melanoma; 14.1 µM in the assay with HCT-116 colon; 13.1 µM with COLO 205 colon; 4.24 µM in the assay with CCRF-CEM leukemia. For the same compound, the results for the TGI with MDA-MB-435 and with RXF 393 renal were 25.5 µM and 27.4 µM, respectively.
For the compound `COc1ccc(N2C(=O)C3c4[nH]c5ccccc5c4C4c5ccccc5CC4C3C2=O)cc1` (stereo not given), the TGI with SK-OV-3 ovarian, in the assay with HCC-2998 colon, in the assay with LOX IMVI melanoma, with HCT-116 colon, in the assay with COLO 205 colon and with CCRF-CEM leukemia was over 100 µM each time. Moreover, the TGI in the assay with MDA-MB-435 and in the assay with RXF 393 renal was over 100 µM throughout.
Turning to `CCn1c(=O)c2c3ccc(OC)cc3[nH]c2c2ccc(OC)cc21`, the TGI in the assay on SK-OV-3 ovarian is over 100 µM; with HCC-2998 colon it was 62.7 µM; in the assay with HCT-116 colon, over 100 µM; in the assay on COLO 205 colon, over 100 µM; with CCRF-CEM leukemia, over 100 µM; in the assay with MDA-MB-435, over 100 µM. Moreover, the TGI in the assay with RXF 393 renal is over 100 µM.
For `COc1cc(/C=C/C(=N\NC(=S)NN)c2sc(NNC(C)=O)nc2C)ccc1O`, the TGI with SK-OV-3 ovarian, in the assay with HCC-2998 colon, in the assay on LOX IMVI melanoma, in the assay with HCT-116 colon, in the assay on COLO 205 colon and in the assay on CCRF-CEM leukemia was over 100 µM in each case. Moreover, the TGI in the assay on MDA-MB-435 and in the assay with RXF 393 renal was over 100 µM in each case.
`O=C1CCCCN1C(=O)c1ccc([N+](=O)[O-])cc1`: the TGI with HCC-2998 colon, in the assay with LOX IMVI melanoma, with HCT-116 colon, with CCRF-CEM leukemia, in the assay with MDA-MB-435 and with RXF 393 renal was over 100 µM throughout.
Regarding `COC12C=CC(CC1)C(C)(C)C2OS(C)(=O)=O` (stereo not given), the TGI in the assay with SK-OV-3 ovarian, in the assay on HCC-2998 colon, with HCT-116 colon, with COLO 205 colon, with CCRF-CEM leukemia and in the assay on MDA-MB-435 was over 100 µM each time. In the assay on RXF 393 renal, this compound yielded a TGI of over 100 µM.
`O=C(/C=C/c1ccccc1)Oc1cccc(Br)c1`: the TGI in the assay on SK-OV-3 ovarian, with HCC-2998 colon, in the assay on LOX IMVI melanoma, with HCT-116 colon, with COLO 205 colon and with MDA-MB-435 was over 100 µM in each case. For the same compound, in the assay with RXF 393 renal, the TGI is over 100 µM.
In the case of `C[C@@]12C[C@@H](c3ccccc3O1)N1Cc3ccccc3CSC1=N2`, the TGI in the assay on SK-OV-3 ovarian, with HCC-2998 colon, with LOX IMVI melanoma, in the assay on HCT-116 colon, with COLO 205 colon and in the assay with MDA-MB-435 was over 100 µM in each case. In addition, in the assay with RXF 393 renal, the TGI is over 100 µM.
Turning to `COc1cc(/C(=C2/O[C@@H]([C@H]3COC(C)(C)O3)[C@H]3OC(C)(C)O[C@@H]23)c2ccc3c(c2)OCO3)cc(OC)c1OC`, the GI50 in the assay with SK-OV-3 ovarian, in the assay on HCC-2998 colon, in the assay on LOX IMVI melanoma, with COLO 205 colon, in the assay with CCRF-CEM leukemia and with MDA-MB-435 was over 25 µM in each case. Also, the GI50 in the assay on RXF 393 renal is 6.05 µM. The TGI in the assay with SK-OV-3 ovarian, with HCC-2998 colon, with LOX IMVI melanoma, in the assay with COLO 205 colon, in the assay with CCRF-CEM leukemia and with MDA-MB-435 was over 25 µM throughout. The TGI with RXF 393 renal is over 25 µM.
For `O=C1O[C@H]2C3C4CCC(C4[C@@H]2I)[C@H]13` (stereo not given in full), the TGI in the assay on HCC-2998 colon, with LOX IMVI melanoma, with HCT-116 colon, with COLO 205 colon, with CCRF-CEM leukemia and in the assay on MDA-MB-435 was over 100 µM throughout. This compound also came in with a TGI with RXF 393 renal of over 100 µM.
Take `O=S(c1ccc(Cl)cc1)c1ccccc1C1=NCCN1` (stereo not given): the TGI in the assay with SK-OV-3 ovarian, with HCC-2998 colon, in the assay with HCT-116 colon, with COLO 205 colon, with CCRF-CEM leukemia and with MDA-MB-435 was over 100 µM each time. The compound also had a TGI in the assay with RXF 393 renal of over 100 µM.
In the case of `N#Cc1ccc2[nH]c3c(c2c1)CC(=O)Nc1ccccc1-3`, the TGI in the assay with HCC-2998 colon, in the assay with LOX IMVI melanoma, with HCT-116 colon, with COLO 205 colon, in the assay on CCRF-CEM leukemia and with MDA-MB-435 was over 100 µM throughout. Moreover, the TGI in the assay with RXF 393 renal was over 100 µM.
Regarding `COc1ccc(C2C(C#N)=C(S)N(C3OC(CO)C(O)C(O)C3O)C(C)=C2C(C)=O)cc1` (stereo not given), the TGI in the assay with HCC-2998 colon, in the assay with LOX IMVI melanoma, in the assay with HCT-116 colon, in the assay on COLO 205 colon, with CCRF-CEM leukemia and with MDA-MB-435 was over 100 µM in each case. Moreover, in the assay on RXF 393 renal, the TGI is over 100 µM.
